From patent publication US4808596A, “Imidazo[4,5-b]pyridine compounds and pharmaceutical compositions containing same” (Tokyo Tanabe Company, Ltd., priority 1986, dated 1989)
Like-named read-outs stand apart in the source and are kept apart here.

Experiments:
[1] = physchem; type: physicochemical; details: solid
Method: The storage stability of the present compounds [I] was tested by allowing each test compound to stand under severe conditions (i.e., a temperature of 60° C. and a relative humidity of 75%) for 8 days and then determining its percentage of residue according to a thin-layer densitometric method (Bunseki Kagaku, Vol. 23, No. 9, p. 1016, 1974). More specifically, upon completion of the severe treatment, 100 μg of each test compound was applied to a thin-layer plate and this plate was developed with a chloroform-ethanol mixture (volume ratio 10:1). The thin-layer plate used for this purpose was a TLC Plate Aluminum Oxide 60F254 (manufactured by Merck Co.; 0.25 mm in thickness and 20 cm×20 cm in size), and it was developed over a distance of 15 cm. Then, using a Shimazu Two-wavelength Chromatoscanner CS-910 (manufactured by Shimazu Seisakusho), the resulting spot was analyzed at a wavelength of 300-315 nm.
For purposes of comparison, the percentages of residue of Omeprazole (at a measuring wavelength of 300 nm) and Compounds α and β (at a measuring wavelength of 310 nm) were determined in the same manner as described above and are also shown in Table 1.

[2] = target: T1, (H^+ +K^+) ATPase (Sus scrofa, UniProt P19156); assay: Inhibitory effect on (H^+ +K^+) ATPase; type: biochemical, hog; details: at 1 × 10^-3 M; in vitro; read-out: Degree of inhibition, Inhibitory effect on (H^+ + K^+) ATPase
T1 construct: prepared from fresh pieces of the fundus ventriculi of hog stomach; from tissue; host or cells: hog stomach, fundus ventriculi (fresh pieces), prepared by the method of Saccomani et al., J. Biol. Chem. 1976
Method: The inhibitory effect of the present compounds [I] on (H^+ +K^+) ATPase was tested by adding each test compound to a solution containing 300-500 μg, on a protein basis, of the enzyme, incubating this reaction mixture at 35°-37° C. for 5-30 minutes, and then determining the residual activity of (H^+ +K^+) ATPase present in the reaction mixture. The test compounds were dissolved in methanol or ethanol in advance and added to the reaction system in such an amount as to give a concentration of 1×10^-3 M. The (H^+ +K^+) ATPase used in this test was prepared from fresh pieces of the fundus ventriculi of hog stomach according to the method of Saccomani et al. (The Journal of Biological Chemistry, Vol. 251, No. 23, p. 7690, 1976). The residual activity of (H^+ +K^+) ATPase was determined by mixing magnesium chloride and potassium chloride with the incubated reaction mixture, adding adenosine triphosphate thereto, incubating this assay mixture 37° C. for 5-15 minutes to effect an enzymic reaction, and colorimetrically determining the liberated inorganic phosphate by use of an ammonium molybdate reagent. The initial concentrations of magnesium chloride, potassium chloride and adenosine triphosphate were adjusted to 2 mM, 20 mM and 2 mM, respectively. Colorimetric determinations were made at a wavelength of 360-400 nm. As a control experiment, the residual activity of (H^+ +K^+) ATPase was determined by repeating the above-described procedure without adding any test compound to the reaction system. In this table, the inhibitory effect is indicated by the degree of inhibition which was obtained by calculating the difference between the measured value obtained in the control experiment and the measured value resulting from the addition of each test compound and expressing this difference as a percentage of the measured value obtained in the control experiment. For purposes of comparison, the inhibitory effect of Omeprazole and Compounds α and β on (H^+ +K^+) ATPase was tested in the same manner as described above and the results thus obtained are also shown in Table 2.

[3] = tested on: gastric acid secretion; assay: Inhibitory effect on gastric acid secretion (pylorus ligation); type: in vivo, male Wistar rats; details: Rattus norvegicus, po, rats; total acidity of gastric juice 4 hours after pylorus ligation
Method: The inhibitory effect of the present compounds [I] on gastric acid secretion was tested by using male Wistar rats, weighing about 200 g, in groups of five. To these rats which had been fasted overnight, the test compounds were orally administered in a series of appropriately selected doses ranging from 1 to 100 mg/kg. Then, the pyloric end of the stomach was ligated. After the lapse of 4 hours, the total acidity of gastric juice of each rat was measured. More specifically, the test compounds were suspended in a 0.5% aqueous solution of carboxymethyl cellulose and administered to the rats 30 minutes before ligation. Gastric juice was collected by sacrificing and laparotomizing each rat. The total acidity of gastric juice was determined by titrating the gastric juice with a 0.1 N aqueous solution of sodium hydroxide until a pH of 7.0 was reached. As a control experiment, the total acidity of gastric juice of an untreated group was determined in the same manner as described above. The inhibitory effect of the test compounds on gastric acid secretion was evaluated on the basis of the dose (in mg/kg) required to inhibit gastric acid secretion, i.e. the total acidity of gastric juice, by 50% (hereinafter referred to as ED50). The ED50 value of each test compound was determined by calculating the difference in total acidity between the untreated group and each treated group, dividing the difference by the total acidity of the untreated group to obtain the degree of inhibition, and constructing a dose-response curve on the basis of the data thus obtained. For purposes of comparison, the ED50 values of Omeprazole and Compounds α and β were determined in the same manner as described above and are also shown in Table 3.

[4] = Acute toxicity test (LD50); details: rat, in vivo, rats
Method: The acute toxicity (LD50) of several typical examples of the present compounds [I] (i.e., the compounds of Examples 1, 8, 13, 19, 24, 26 and 33) was tested with 5-weeks-old male Wistar rats. […] When Omeprazole was administered orally, its LD50 value was greater than 4000 mg/kg.

T1 sequence (P19156 2-1034 limits assumed): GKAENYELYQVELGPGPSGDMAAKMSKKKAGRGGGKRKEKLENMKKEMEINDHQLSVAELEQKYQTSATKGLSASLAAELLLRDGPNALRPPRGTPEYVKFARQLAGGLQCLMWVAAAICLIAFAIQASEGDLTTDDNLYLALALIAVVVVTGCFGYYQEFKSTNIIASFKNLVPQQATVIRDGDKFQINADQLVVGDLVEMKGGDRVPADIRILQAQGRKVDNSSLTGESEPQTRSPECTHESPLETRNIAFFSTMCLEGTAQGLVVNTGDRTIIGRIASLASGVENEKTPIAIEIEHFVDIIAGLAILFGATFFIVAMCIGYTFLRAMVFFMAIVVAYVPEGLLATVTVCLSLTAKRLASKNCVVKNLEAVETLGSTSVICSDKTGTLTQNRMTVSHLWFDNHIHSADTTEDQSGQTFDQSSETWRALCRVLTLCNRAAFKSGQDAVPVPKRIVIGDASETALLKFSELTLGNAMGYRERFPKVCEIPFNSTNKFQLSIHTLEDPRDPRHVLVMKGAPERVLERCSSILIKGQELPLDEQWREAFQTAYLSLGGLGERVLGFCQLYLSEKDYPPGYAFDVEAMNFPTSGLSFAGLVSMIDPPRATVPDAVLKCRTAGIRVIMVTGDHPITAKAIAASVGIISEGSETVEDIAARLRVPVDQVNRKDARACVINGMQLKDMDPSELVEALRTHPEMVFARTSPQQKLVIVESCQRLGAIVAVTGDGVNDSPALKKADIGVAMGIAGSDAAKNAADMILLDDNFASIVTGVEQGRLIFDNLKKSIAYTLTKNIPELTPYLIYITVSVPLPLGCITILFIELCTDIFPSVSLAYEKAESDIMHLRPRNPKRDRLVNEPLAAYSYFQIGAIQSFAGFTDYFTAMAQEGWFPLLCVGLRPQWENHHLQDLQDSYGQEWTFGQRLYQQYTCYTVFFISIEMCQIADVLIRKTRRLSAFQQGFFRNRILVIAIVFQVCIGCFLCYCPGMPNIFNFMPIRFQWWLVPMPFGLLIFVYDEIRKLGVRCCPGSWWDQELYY
T1 sequence (P18434 whole entry partner): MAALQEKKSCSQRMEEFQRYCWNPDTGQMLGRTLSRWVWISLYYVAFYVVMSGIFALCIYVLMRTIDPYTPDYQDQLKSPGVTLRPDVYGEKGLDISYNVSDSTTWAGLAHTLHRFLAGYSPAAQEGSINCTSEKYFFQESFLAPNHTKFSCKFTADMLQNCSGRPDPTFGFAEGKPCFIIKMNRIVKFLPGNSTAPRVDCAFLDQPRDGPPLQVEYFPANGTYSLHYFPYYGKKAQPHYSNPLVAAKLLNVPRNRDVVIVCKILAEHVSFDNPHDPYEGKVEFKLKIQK

remaining at 192 h ([1]; 75% rh) [%]	inhibition at 1000 µM [2] [%]	SMILES	ED50 [3] [mg/kg]	LD50 ([4]; ip, intraperitoneal administration) [mg/kg]	LD50 ([4]; oral administration) [mg/kg]	remaining at 192 h ([1]; after treatment at 60° C. and 75% RH for 8 days, read-out: Storage stability, Percentage of residue) [%]
76	98.5	CCCCOc1ccc2[nH]c([S+]([O-])Cc3ncc(C)c(C)c3C)nc2n1 (centres unmarked) [Example 12, 2-[2-(3,4,5-Trimethyl)pyridylmethylsulfinyl]-5-n-butyloxyimidazo[4,5-b]pyridine]	21	–	–	–
57	94.6	COc1ccnc(C[S+]([O-])c2nc3nc(OCC(C)C)ccc3[nH]2)c1 (centres unmarked) [Example 22, 2-[2-(4-Methoxy)pyridylmethylsulfinyl]-5-isobutyloxyimidazo[4,5-b]pyridine]	15	–	–	–
85	92.3	CCCOc1ccc2[nH]c([S+]([O-])Cc3ncc(C)cc3C)nc2n1 (centres unmarked) [Example 18, 2-[2-(3,5-Dimethyl)pyridylmethylsulfinyl]-5-n-propyloxyimidazo[4,5-b]pyridine]	19	–	–	–
76	98.5	Cc1cnc(C[S+]([O-])c2nc3nc(OCCC(C)C)ccc3[nH]2)c(C)c1 (centres unmarked) [Example 34, 2-[2-(3,5-Dimethyl)pyridylmethylsulfinyl]-5-(3-methylbutyloxy)imidazo[4,5-b]pyridine]	14	–	–	–
93	100	CCOc1ccc2[nH]c([S+]([O-])Cc3ncc(C)cc3C)nc2n1 (centres unmarked) [Example 14, 2-[2-(3,5-Dimethyl)pyridylmethylsulfinyl]-5-ethoxyimidazo[4,5-b]pyridine]	15	–	–	–
95	100	Cc1cnc(C[S+]([O-])c2nc3nc(OCC4CC4)ccc3[nH]2)c(C)c1 (centres unmarked) [Example 23, 2-[2-(3,5-Dimethyl)pyridylmethylsulfinyl]-5-cyclopropylmethyloxyimidazo[4,5-b]pyridine]	12	–	–	–
69	97.4	COc1cc(C[S+]([O-])c2nc3nc(OCC(C)C)ccc3[nH]2)ncc1C (centres unmarked) [Example 21, 2-[2-(4-Methoxy-5-methyl)pyridylmethylsulfinyl]-5-isobutyloxyimidazo[4,5-b]pyridine]	13	–	–	–
75	93.7	COc1ccnc(C[S+]([O-])c2nc3nc(OC(C)C)ccc3[nH]2)c1 (centres unmarked) [Example 17, 2-[2-(4-Methoxy)pyridylmethylsulfinyl]-5-isopropyloxyimidazo[4,5-b]pyridine]	17	–	–	–
53	98.8	COc1cc(C[S+]([O-])c2nc3nccc(OC)c3[nH]2)ncc1C (centres unmarked) [Example 7, 2-[2-(4-Methoxy-5-methyl)pyridylmethylsulfinyl]-7-methoxyimidazo[4,5-b]pyridine]	22	–	–	–
98	100	COc1ccc2[nH]c([S+]([O-])Cc3cc(OC)c(C)cn3)nc2n1 (centres unmarked) [Example 4, 2-[2-(4-Methoxy-5-methyl)pyridylmethylsulfinyl]-5-methoxyimidazo[4,5-b]pyridine]	15	–	–	–
77	96.6	COc1ccc2[nH]c([S+]([O-])Cc3ncc(C)c(OC)c3C)nc2n1 (centres unmarked) [Example 2, 2-[2-(3,5-Dimethyl-4-methoxy)pyridylmethylsulfinyl]-5-methoxyimidazo[4,5-b]pyridine]	18	–	–	–
68	93	COc1c(C)cnc(C[S+]([O-])c2nc3ncc(OCCCC4CCCC4)cc3[nH]2)c1C (centres unmarked) [Example 36, 2-[2-(3,5-Dimethyl-4-methoxy)pyridylmethylsulfinyl]-6-(3-cyclopentylpropyloxy)imidazo[4,5-b]pyridine]	19	–	–	–
92	90	Cc1cnc(C[S+]([O-])c2nc3nc(OC(C)C)ccc3[nH]2)c(C)c1 (centres unmarked) [Example 10, 2-[2-(3,5-Dimethyl)pyridylmethylsulfinyl]-5-isopropyloxyimidazo[4,5-b]pyridine]	19	–	–	–
87	98.5	COc1c(C)cnc(C[S+]([O-])c2nc3nc(OC(C)C)ccc3[nH]2)c1C (centres unmarked) [Example 15, 2-[2-(3,5-Dimethyl-4-methoxy)pyridylmethylsulfinyl]-5-isopropyloxyimidazo[4,5-b]pyridine]	13	–	–	–
51	92.9	COc1ccnc(C[S+]([O-])c2nc3nc(OCC4CC4)ccc3[nH]2)c1 (centres unmarked) [Example 25, 2-[2-(4-Methoxy)pyridylmethylsulfinyl]-5-cyclopropylmethyloxyimidazo[4,5-b]pyridine]	18	–	–	–
90	96.1	COc1cc(C[S+]([O-])c2nc3nc(OC(C)C)ccc3[nH]2)ncc1C (centres unmarked) [Example 16, 2-[2-(4-Methoxy-5-methyl)pyridylmethylsulfinyl]-5-isopropyloxyimidazo[4,5-b]pyridine]	16	–	–	–
99	100	COc1ccc2[nH]c([S+]([O-])Cc3ncc(C)c(C)c3C)nc2n1 (centres unmarked) [Example 3, 2-[2-(3,4,5-Trimethyl)pyridylmethylsulfinyl]-5-methoxyimidazo[4,5-b]pyridine]	9	–	–	–
72	100	COc1c(C)cnc(C[S+]([O-])c2nc3nc(OCC(C)C)ccc3[nH]2)c1C (centres unmarked) [Example 20, 2-[2-(3,5-Dimethyl-4-methoxy)pyridylmethylsulfinyl]-5-isobutyloxyimidazo[4,5-b]pyridine]	10	–	–	–

SMILES	remaining at 192 h ([1]; 75% rh) [%]	inhibition at 1000 µM [2] [%]	ED50 [3] [mg/kg]	LD50 ([4]; ip, intraperitoneal administration) [mg/kg]	LD50 ([4]; oral administration) [mg/kg]	remaining at 192 h ([1]; after treatment at 60° C. and 75% RH for 8 days, read-out: Storage stability, Percentage of residue) [%]
Cc1cnc(C[S+]([O-])c2nc3nc(OCC(C)C)ccc3[nH]2)c(C)c1 (centres unmarked) [Example 19, 2-[2-(3,5-Dimethyl)pyridylmethylsulfinyl]-5-isobutyloxyimidazo[4,5-b]pyridine]	78	100	11	> 500	> 4000	–
Cc1ccnc(C[S+]([O-])c2nc3nc(OCC(F)(F)C(F)(F)C(F)(F)F)ccc3[nH]2)c1 (centres unmarked) [Example 30, 2-[2-(4-Methyl)pyridylmethylsulfinyl]-5-(2,2,3,3,4,4,4-heptafluorobutyloxy)imidazo[4,5-b]pyridine]	–	92.1	19	–	–	73
